Assay results from ChEMBL document CHEMBL2057146, “Improvement by sodium dl-α-tocopheryl-6-O-phosphate treatment of moisture-retaining ability in stratum corneum through increased ceramide levels” (Bioorg Med Chem, 2012).

Key:
Mus musculus [1] = assay: Increase in ceramide content in hairless mouse skin at 1% v/v administered topically after 4 weeks relative to vehicle treated control; type: functional
Mus musculus [2] = assay: Increase in ceramide content in hairless mouse skin at 1% w/v administered topically after 30 hrs relative to vehicle treated control; type: functional
Homo sapiens [3] = assay: Increase in ceramide content in human skin at 2% administered topically after 4 weeks relative to vehicle treated control; type: functional
Homo sapiens [4] = assay: Increase in ceramide content in human skin at 4% administered topically after 4 weeks relative to vehicle treated control; type: functional
Keratinocyte [5] = assay: Increase in ceramide content in keratinocytes at […] after 24 hrs relative to vehicle treated control; type: functional
Keratinocyte [6] = assay: Increase in ceramide content in normal human keratinocytes at 1 to 30 uM after 6 days relative to vehicle treated control; type: functional
[7] = Upregulation of SPTLCB1 mRNA expression in neonatal human foreskin keratinocytes at 10 uM after 4 days relative to vehicle treated control; type: functional, cell-based; details: Keratinocyte
[8] = Upregulation of SPTLCB2 mRNA expression in neonatal human foreskin keratinocytes at 10 uM after 4 days relative to vehicle treated control; type: functional, cell-based; details: Keratinocyte
Homo sapiens [9] = assay: Increase in ceramide content in human skin at 0.3 to 1% administered topically after 11 days relative to vehicle treated control; type: functional
Keratinocyte [10] = assay: Increase in ceramide content in keratinocytes at 1% after 6 days relative to vehicle treated control; type: functional

For CCO[C@H]1O[C@H](CO)[C@@H](O)[C@H](O)[C@H]1O, the “fold change (FC)” value (Mus musculus [1]) was 1.1.

In the case of O=C1CCCCCCCCCCCC(=O)OCCO1, the “fold change (FC)” value (Mus musculus [2]) is reported as 1.3.

For CC(O)C(=O)O (configuration not stated) [LACTIC ACID], the “fold change (FC)” value (Homo sapiens [3]) was 1.4, the “fold change (FC)” value (Homo sapiens [4]) was 1.4 and the “fold change (FC)” value (Keratinocyte [5]) was 4.3.

In the case of NC(=O)c1cccnc1 [NIACINAMIDE], the “fold change (FC)” value (Homo sapiens [3]) is reported as 1.4, the “fold change (FC)” value (Homo sapiens [4]) is reported as 1.4 and the “fold change (FC)” value (Keratinocyte [6]) is reported as 4.1. The fold change (FC) [7] was 1.8 and the fold change (FC) [8] was 1.8.

With C[C@H]1[C@H](C)CC[C@]2(C(=O)O)CC[C@]3(C)C(=CC[C@@H]4[C@@]5(C)CC[C@H](O)C(C)(C)[C@@H]5CC[C@]43C)[C@H]12 [URSOLIC ACID] the “fold change (FC)” value (Homo sapiens [9]) was 1.3 and the “fold change (FC)” value (Keratinocyte [10]) was 2.2.
